Data: PubChem BioAssay (NCI)
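All cell lines were grown in 96-well plates and treated with compound for 48 hours. GI50 is the concentration that inhibits growth by half. TGI marks complete inhibition of growth.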

Assays:
Experiment in all cases: growth of human tumour cells (NCI), 48 h
[1] = test system: SN12C renal
[2] = test system: UACC-257 melanoma
[3] = test system: UO-31 renal
[4] = test system: NCI-H460 lung
[5] = test system: DU-145 prostate
[6] = test system: NCI-H226 lung
[7] = test system: MDA-MB-435
[8] = test system: SF-268 CNS
[9] = test system: MCF7 breast
[10] = test system: OVCAR-3 ovarian

Structure (SMILES)	GI50 [1] [nM]	TGI [1] [µM]	GI50 [2] [nM]	TGI [2] [µM]	GI50 [3] [nM]	TGI [3] [µM]	GI50 [4] [nM]	TGI [4] [µM]	GI50 [5] [nM]	TGI [5] [µM]	GI50 [6] [nM]	TGI [6] [µM]	GI50 [7] [nM]	TGI [7] [µM]	GI50 [8] [µM]	TGI [8] [µM]	GI50 [9] [nM]	TGI [9] [µM]	GI50 [10] [nM]	TGI [10] [µM]
COc1ccc(C(=O)c2cc(OC)c(OC)c(OC)c2)cc1/C=C/C(=O)c1ccc(O)cc1	2660	12.6	7770	26.6	3200	16.2	2560	7.23	1880	3.45	2500	7.78	1180	11.3	3.98	95.1	3160	15.9	3000	8.47
Clc1ccc(Nc2ccnc(NCCNc3ccnc4cc(Cl)ccc34)n2)cc1	1510	3.47	1680	3.17	1210	2.6	1340	2.86	1590	2.97			1370	2.68	1.45	2.82	1080	2.59	1360	2.69
OCc1ccc(N(Cc2ccc(F)cc2)C2CCC2)cc1Cl	11800	24.4	121	0.46	1880	15.2	275	10.2	14200	28	56.9	0.193	16200	31.1	18.1	33.9	178	10.9	403	2.05
O=C1NC(=O)C2=C1CCC2O (stereo not drawn)		> 100		> 100		> 100		> 100		> 100		> 100		> 100		> 100		> 100		> 100
COc1ccc2c(CN3CCC(CO)CC3)cc3cc4c(cc3c2c1)OCO4	247	4.37	156	0.393	252	19	143	3.21	250	12.6	225	0.56	275	1.41	0.176	2.47	211	2.55	316	3.39
O=C1C(Cl)=C(Oc2ccccc2)C(=O)c2ccccc21	11200	29.5	4650	14.1	1230	3.23	5570	23.1	16200	31	12100	28.7	8060	24.1	5.37	18.7	7300	25.2	1830	3.42
